Measured values published in patent US6689805B2, “Pyrazole-3-one derivative, method for preparing the same, and pharmaceutical composition containing the same” (CJ Corp., priority 2002, dated 2004).

Experiments:
[1] = target: T1, COX-1 (Homo sapiens, UniProt P23219); test: Assay for the COX-1 inhibitory activity using U-937 (PGE2 inhibition); type: cell-based; settings: test compound 1 μM; U-937 human lymphoma cells; PGE2 vs DMSO control; read-out: Cyclooxygenase (COX) Inhibition (%) COX-1 (1 μM)
T1 construct: endogenous in cells
Procedure: The collected cells were diluted with HBSS (x1, Hank's balanced salt solution) to a concentration of 1×10^6 cells/ml. 1 ml of the dilute cell solution was placed into each well of 12-well plates. 5 μl of 1 μM solution of a test compound in DMSO and 5 μl of DMSO as a control were added to the wells. The wells were incubated in CO2 incubator at 37° C. for 15 minutes. Separately, 10 mM stock solution of arachidonic acid in ethanol was diluted ten times in ethanol to prepare 1 mM solution of arachidonic acid. Arachidonic acid acts as a substrate. 10 μl of the 1 mM solution of arachidonic acid was added to each well and incubated at CO2 incubator at 37° C. for 30 minutes. The cell solution of each well was placed in a centrifuge test tube and centrifuged at 10,000 rpm at 4° C. for 5 minutes. The concentration of PGE2 in the collected cells and the supernatant was quantified by means of a monoclonal kit (Cayman Chemicals). The percentages of PGE2 inhibition in a group of the test compound-treated cells in relation to a group of the DMSO-treated cells were calculated. Based on the calculated values, the COX-1 inhibitory activities were evaluated.
(§1) The percentages of the COX inhibition were calculated according to the following equation:
(§2) % Inhibition=(concentration of PGE2 in test compound-untreated sample−concentration of PGE2 in test compound-treated sample) / (concentration of PGE2 in test compound-untreated sample)×100

[2] = target: T2, COX-2 (Mus musculus, UniProt Q05769); test: Assay for the COX-2 inhibitory activity using RAW 264.7 cell line (PGE2 inhibition); type: cell-based; settings: RAW264.7, test compound 10 nM, RAW 264.7 cells, interferon + LPS induced, read-out: Cyclooxygenase (COX) Inhibition (%) COX-2 (10 nM)
T2 construct: endogenous in cells
T2 sequence (Q05769 18-604): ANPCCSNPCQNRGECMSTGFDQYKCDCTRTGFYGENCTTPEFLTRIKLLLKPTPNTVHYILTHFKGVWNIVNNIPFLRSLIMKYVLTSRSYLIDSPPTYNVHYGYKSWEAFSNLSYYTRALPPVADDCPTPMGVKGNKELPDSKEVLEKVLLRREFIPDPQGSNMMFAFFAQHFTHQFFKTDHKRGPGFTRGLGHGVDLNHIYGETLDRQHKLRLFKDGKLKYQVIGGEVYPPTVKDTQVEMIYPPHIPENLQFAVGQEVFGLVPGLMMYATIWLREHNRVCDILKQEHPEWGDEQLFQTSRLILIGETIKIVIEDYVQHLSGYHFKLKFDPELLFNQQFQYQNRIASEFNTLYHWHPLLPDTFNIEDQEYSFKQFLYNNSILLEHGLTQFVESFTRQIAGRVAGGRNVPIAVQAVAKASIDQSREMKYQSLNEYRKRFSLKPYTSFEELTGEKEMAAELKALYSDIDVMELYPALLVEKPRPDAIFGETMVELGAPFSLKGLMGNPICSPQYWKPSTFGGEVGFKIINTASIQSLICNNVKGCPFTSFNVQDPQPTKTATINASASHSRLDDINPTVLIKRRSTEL
Procedure: Each well was treated with 250 μM of aspirin and incubated at 37° C. for 2 hours. After the culture media were replaced with new culture media, the new culture media were treated with a test compound (10 nM) and incubated for 30 minutes. Then, each well was treated with interferon ? (100 units/ml) and lipopolysaccharide (LPS, 100 ng/ml) and incubated for 18 hours. The culture media were transferred to other test tubes. The concentration of PGE2 was quantified by means of the EIA kit (Cayman Chemicals).
as §1, §2

T1 sequence (P23219 24-599): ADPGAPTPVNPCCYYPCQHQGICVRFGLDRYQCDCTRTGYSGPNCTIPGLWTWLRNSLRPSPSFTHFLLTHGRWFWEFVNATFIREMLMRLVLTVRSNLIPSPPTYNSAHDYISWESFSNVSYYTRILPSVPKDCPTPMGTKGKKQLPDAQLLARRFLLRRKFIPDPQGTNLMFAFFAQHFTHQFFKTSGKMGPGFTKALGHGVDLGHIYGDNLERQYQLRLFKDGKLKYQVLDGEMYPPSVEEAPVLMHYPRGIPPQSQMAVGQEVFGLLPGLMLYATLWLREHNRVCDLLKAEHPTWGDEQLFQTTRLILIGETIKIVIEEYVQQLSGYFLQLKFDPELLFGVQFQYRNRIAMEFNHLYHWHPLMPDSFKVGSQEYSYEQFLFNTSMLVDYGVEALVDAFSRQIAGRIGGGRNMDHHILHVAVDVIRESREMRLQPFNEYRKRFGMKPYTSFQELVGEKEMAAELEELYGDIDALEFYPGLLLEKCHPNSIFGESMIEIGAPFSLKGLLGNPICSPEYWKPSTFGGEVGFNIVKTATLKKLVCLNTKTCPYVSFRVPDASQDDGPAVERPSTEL

| Compound | inhibition at 1 µM [1] [%] | melting point [°C] | inhibition at 0.01 µM [2] [%] |
| --- | --- | --- | --- |
| Cc1onc(-c2ccccc2)c1-c1ccc(S(N)(=O)=O)cc1 [Reference (Valdecoxib), Valdecoxib, reference compound] | 28.8 | – | – |
| Cc1ccc(-c2c(-c3ccc(S(C)(=O)=O)cc3)n(C)n(C)c2=O)cc1 [Example 7, 5-(4-methanesulfonylphenyl)-1,2-dimethyl-4-(4-methylphenyl)-1,2-dihydropyrazole-3-one] | 36.5 | 247 to 249 | 12.5 |
| Cn1c(-c2ccc(S(C)(=O)=O)cc2)c(-c2ccccc2)c(=O)n1C [Example 6, 5-(4-methanesulfonylphenyl)-1,2-dimethyl-4-phenyl-1,2-dihydropyrazole-3-one] | 22.6 | 210 to 212 | 13.2 |
| COc1ccc(-c2c(-c3ccc(S(C)(=O)=O)cc3)n(C)n(C)c2=O)cc1 [Example 5, 5-(4-methanesulfonylphenyl)-4-(4-methoxyphenyl)-1,2-dimethyl-1,2-dihydropyrazole-3-one] | 10.5 | 245 to 247 | 22.5 |
| Cn1c(-c2ccc(S(C)(=O)=O)cc2)c(-c2ccc(Cl)c(Cl)c2)c(=O)n1C [Example 8, 4-(3,4-dichlorophenyl)-5-(4-methanesulfonylphenyl)-1,2-dimethyl-1,2-dihydropyrazole-3-one] | – | 240 to 242 | – |
